In PMC11272598, “RG7774 (Vicasinabin), an orally bioavailable cannabinoid receptor 2 (CB2R) agonist, decreases retinal vascular permeability, leukocyte adhesion, and ocular inflammation in animal models” (Frontiers in Pharmacology, 2024):
Several values for one entry are separate records, joined by “and”; a condition that tells them apart may be missing. Equal values may be shown once.

Experiments:
human CB2R = target: T1, human CB2R (Homo sapiens, UniProt P34972); assay: Forskolin-stimulated cAMP assay in CHO cells; format: cell-based
T1 construct: bgal (beta-galactosidase fragment of the PathHunter system); host or cells: CHO-K1
T1 sequence (P34972 whole entry, the tested form may be a part): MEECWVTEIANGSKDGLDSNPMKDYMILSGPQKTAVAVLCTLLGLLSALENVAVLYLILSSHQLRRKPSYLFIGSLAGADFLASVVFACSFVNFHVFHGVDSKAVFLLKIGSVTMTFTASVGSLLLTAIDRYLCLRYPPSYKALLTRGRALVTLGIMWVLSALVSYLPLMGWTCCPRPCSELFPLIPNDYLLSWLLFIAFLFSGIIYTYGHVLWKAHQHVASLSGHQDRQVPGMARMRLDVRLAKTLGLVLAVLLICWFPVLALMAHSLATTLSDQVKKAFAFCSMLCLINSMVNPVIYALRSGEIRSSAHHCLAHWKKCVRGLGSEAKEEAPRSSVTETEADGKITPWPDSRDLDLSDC
Description: (§1) The inhibitory effects of RG7774 on forskolin-stimulated accumulation of cAMP were determined using the cAMP-Nano-TRF detection kit (Roche Diagnostics, Penzberg, Germany), as previously described ([Porter et al., 2019]). CHOK1hCB1_bgal, CHOK1mCB2_bgal, and CHOK1hCB2_bgal cells (DiscoveRx, Fremont, CA, United States) were seeded 17–24 h prior to the experiment at a density of 3 × 10^4 cells per well in a black 96-well plate with a flat, clear bottom (Corning, Wiesbaden, Germany) prior to incubating in 5% CO2 at 37°C in a humidified incubator. The growth medium was exchanged with Krebs Ringer bicarbonate buffer containing 1 mM IBMX and 0.1% fatty acid-free BSA and incubated at 30°C for 1 h. RG7774 or positive control (CP55940) (1 µM) was added to a 0.1 mL final assay volume and the mixture was incubated at 30°C for 30 min. The assay was stopped by adding 50 μL 3x lysis reagent and shaking for 2 h at RT. The time-resolved energy transfer was measured using an LF502 Nanoscan FLT (IOM, Berlin, Germany) equipped with a laser excitation source. cAMP content was determined from a standard curve spanning 10–0.13 nM cAMP. Efficacies were expressed as a percentage relative to the positive control.

recombinant mouse CB2R = target: T2, recombinant mouse CB2R (Mus musculus, UniProt P47936); assay: Forskolin-stimulated cAMP assay in CHO cells; format: cell-based
T2 construct: bgal (beta-galactosidase fragment of the PathHunter system); host or cells: CHO-K1
T2 sequence (P47936 whole entry, the tested form may be a part): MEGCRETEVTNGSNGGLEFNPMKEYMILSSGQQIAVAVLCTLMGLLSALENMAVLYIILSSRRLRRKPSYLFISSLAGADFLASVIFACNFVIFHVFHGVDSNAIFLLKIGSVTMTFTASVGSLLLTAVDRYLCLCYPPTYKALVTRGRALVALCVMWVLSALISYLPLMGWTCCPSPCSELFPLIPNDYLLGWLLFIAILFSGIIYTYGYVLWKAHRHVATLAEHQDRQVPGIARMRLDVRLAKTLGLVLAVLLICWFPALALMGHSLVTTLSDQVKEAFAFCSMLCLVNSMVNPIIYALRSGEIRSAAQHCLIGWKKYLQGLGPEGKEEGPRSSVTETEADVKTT
Description: as §1

[1] = target: T3, endogenous CB2R in mouse spleen tissues (Mus musculus, UniProt P47936); assay: Competition binding, [^3H]-RO6753361, mouse spleen membranes
T3 construct: from tissue; host or cells: mouse spleen membranes
T3 sequence (P47936 whole entry): as the sequence (P47936 whole entry, the tested form may be a part) above
Description: Competition and saturation binding assays were performed using the radiolabeled CB1R/CB2R agonist [^3H]-CP55940 (PerkinElmer, Waltham, MA, United States) in recombinant cell systems, and the newly developed CB2R-selective agonist [^3H]-RO6753361 ([Chicca et al., 2024]) in cells expressing endogenous CB1R/CB2R. Competition assays were conducted by incubating 5, 40, or 40 µg of membrane protein from CHO cells, Jurkat cells or spleen cells, respectively, with 1.5 nM [^3H]-CP55940 or 1.5 nM [^3H]-RO6753361 in the presence or absence of increasing concentrations of ligand (RG7774 or control) for 2 h at 30°C in a final volume of 0.2 mL of assay buffer (50 mmol/L Tris-HCl, 5 mmol/L MgCl2, 2.5 mmol/L EDTA, and 0.5% fatty acid-free BSA [pH 7.4] and 1% DMSO), with gentle shaking. Saturation binding assays were conducted by incubating 1–3 μg, 40 μg, or 30–40 μg of membrane protein from CHO cells, Jurkat cells, or spleen tissue, respectively, with 12 concentrations in the range of 80–0.039 nM [^3H]-CP55940 or [^3H]-RO6753361 for 2 h at 30°C in a final volume of 0.2 mL/well of assay buffer without DMSO. […] IC50 values and Hill slopes were determined with a 4-parameter logistic model using ActivityBase (ID Business Solution, Guilford, United Kingdom) and pKi values were determined using the Cheng-Prusoff equation ([Cheng and Prusoff, 1973]).

[2] = test system: retinal microglia migration; assay: Laser-induced CNV in rats, microglia volume on laser lesions; format: in vivo, Brown Norway rats
Description: Right eyes were transferred to a petri dish containing 10% neutral-buffered formalin (NBF) and fixed for 5 min at RT. Eyes were prepared in PBS^−/– by removing the anterior segments and carefully separating the retinas from the posterior segments (retinal pigment epithelium/choroid and sclera). Dissected retinas were cut into petals, transferred to 2 × 24 well plates containing fresh 10% NBF solution, and fixed for 2 h at RT. […]
Microglia migration towards laser-injured retinal regions was quantified from 3D RGB-images (CZI-files) of the fluorescently labeled retinal samples, a workflow and image analytics tool was applied that allowed a semi-automated volumetric quantitation of Iba1-positive pixel per image frame integrated over the Z-dimension. […] Subsequently, TIFF images were analyzed using IDL (Interactive Data Language, Version 6.4) in combination with Excel 2010 to compute RGB-channel-dependent threshold images (pdf-files) with a histogram between 1–255 A.U. pixel intensity. […] The sum of pixels displaying the determined threshold intensity or higher was calculated and finally integrated over the Z-dimension of the 3D image.

For `Cn1nnnc1Cn1nnc2c(N3CC[C@H](O)C3)nc(C(C)(C)C)nc21` [RG7774, (S)-1-(5-tert-butyl-3-[(1-methyl-1H-tetrazol-5-yl)methyl]-3H-[1,2,3]triazolo[4,5-d]pyrimidin-7-yl)pyrrolidin-3-ol], the EC50 (human CB2R; EC50, inhibition of forskolin-induced cAMP, human CB2R, recombinant CHO cells) was 2.8 nM and 2.81 nM, the “functional affinity for human CB2R over CB1R” value (human CB2R; cAMP assays) was > 3,600 fold and the “efficacy compared to maximum efficacy of CP55940, human CB2R” value (human CB2R; cAMP, CHO cells) was “full agonist”. The EC50 (recombinant mouse CB2R) was 2.6 ± 0.14 nM, the “efficacy compared to maximum efficacy of CP55940, mouse CB2R” value (recombinant mouse CB2R; cAMP, CHO cells) was “full agonist” and the Ki [1] was 39.7 ± 13.5 nM. For the same compound, the “reduction of microglia volumes in lasered versus non-lasered regions” value ([2]; 3 mg/kg oral gavage) was 25% and the “reduction of microglia volumes in lasered versus non-lasered regions” value ([2]; 10 mg/kg oral gavage) was 41%.
